Results published in patent US20040197705A1, “Cyanide compound, optical filter, and optical recording material” (ASAHI DENKA CO., LTD., priority 2003, published 2004).

How the values were obtained:
Assay type in all cases: physicochemical
[1] = Absorption spectrum of optical filters containing the cyanine compound (λmax, half bandwidth); conditions: Example 3: PET-protected glass plate with dye-containing acrylic binder layer
Protocol: A binder composition having the above formulation was applied to a 188 μm thick PET film having been surface treated for adhesion improvement with a bar coater #9 and dried at 80° C. for 30 seconds. The PET film was hot bonded to a 0.9 mm thick alkali glass plate to prepare a PET-protected glass plate having a light absorbing dye-containing binder layer between the glass substrate and the PET film.

[2] = Decomposition temperature in TG-DTA; conditions: 100 ml/min nitrogen stream; temperature rise 10° C./min
Protocol: Decomposition Temperature in TG-DTA (100 ml/min nitrogen stream; temperature rise: 10° C./min): 281° C.

[3] = UV transmission and reflection spectra of spin-coated specimens (optical recording material); conditions: for Reflected Light Intensity at 650 nm: expressed relatively to that at λmax; for Reflected Light Intensity at 650 nm / Reflected Light λmax: incidence angle 5°; for Reflected Light λmax: specimen as in Evaluation Example 3; for Transmitted Light λmax: specimen spin coated on polycarbonate plate as in Evaluation Example 3
Protocol: (§1) The test compound shown in Table 2 below was dissolved in a 1:1 (by volume) mixed solvent of MEK and 2,2,3,3-tetrafluoropropan-1-ol to prepare a 1 wt % solution. The solution was applied to a 20 mm×20 mm polycarbonate plate by spin coating at 2000 rpm for 60 seconds to prepare a specimen. The UV absorption spectrum of the specimen was determined. The specimen was then irradiated with light of 55000 lux, and the exposure time required for the absorption retention (as defined in Evaluation Example 2) to decrease to 50% was measured.
Specimens were prepared in the same manner as in Evaluation Example 3. The UV transmission spectrum and the UV reflection spectrum (incidence angle: 5°) of the specimens were measured. In Table 4, the reflected light intensity at 650 nm is expressed relatively to that at λmax.

[4] = Evaluation of light resistance (absorption retention halving time); conditions: film spin coated on polycarbonate plate; light of 55000 lux; exposure time for absorption retention to decrease to 50%
Protocol: as §1

[5] = Evaluation of solubility in methyl ethyl ketone (MEK); conditions: in methyl ethyl ketone (MEK) at 20° C.; % by weight; tested from 0.1 to 0.3% by 0.05%
Protocol: The test compound was added to MEK at 20° C. in an amount corresponding to a concentration varying from 0.1 to 0.3% by weight by 0.05% by weight to see whether it dissolved or not.

Row | Structure (SMILES) | Half Bandwidth [1] [nm] | λmax [1] [nm] | Decomposition Temperature in TG-DTA [2] [°C] | Reflected Light Intensity at 650 nm [3] [%] | Reflected Light λmax [3] [nm] | Transmitted Light λmax [3] [nm] | Absorption Retention Halving Time [4] [h] | Solubility: soluble at [5] | Solubility: insoluble at [5]
1 | Cc1[nH]c2ccc(F)cc2c1C1=C([O-])/C(=C/C2=[N+](C)c3ccccc3C2(C)C)C1=O [Compound No. 22] | 33 | 590 | 295 | – | – | – | – | – | –
2 | Cc1c(C2=C([O-])/C(=C/C3=[N+](C)c4ccccc4C3(C)C)C2=O)c2cc([N+](=O)[O-])ccc2n1CCC(C)C [Compound No. 23] | 36 | 597 | – | – | – | – | – | – | –
3 | CC(C)CC[N+]1=C(/C=C2\C(=O)C(c3cn(C)c4ccccc34)=C2[O-])C(C)(C)c2ccccc21 [Compound No. 5] | 29 | 587 | 271 | 95.9 | 656 | 611 | 38 | soluble at 0.3% | –
4 | CC1=[N+](C)c2ccccc2/C1=C1/C(=O)C(c2c(C)n(C)c3ccccc23)=C1[O-] [Comp. Compound 1, reference compound] | – | – | – | – | – | – | – | – | insoluble at 0.1%
5 | Cc1c(C2=C([O-])/C(=C/C3=[N+](C)c4ccccc4C3(C)C)C2=O)c2ccccc2n1C [Compound No. 14] | 30 | 602 | 287 | – | – | – | – | soluble at 0.3% | –
6 | CCCCn1c(C)c(C2=C([O-])/C(=C3/C(C)=[N+](CCCC)c4ccccc43)C2=O)c2ccccc21 [Comp. Compound 2, reference compound] | – | – | – | – | – | – | – | – | insoluble at 0.1%
7 | Cn1cc(C2=C([O-])/C(=C/C3=[N+](C)c4ccc5ccccc5c4C34CCCCC4)C2=O)c2ccccc21 [Compound No. 4] | – | – | 259 | – | – | – | – | ≥ 0.15% | < 0.2%
8 | CC(C)CCn1cc(C2=C([O-])/C(=C/C3=[N+](C)c4ccccc4C3(C)C)C2=O)c2ccccc21 [Compound No. 3] | – | – | – | 100 | 651 | 608 | 26 | – | –
9 | Cn1c(-c2ccccc2)c(C2=C([O-])/C(=C/C3=[N+](C)c4ccccc4C3(C)C)C2=O)c2ccccc21 [Compound No. 26] | 34 | 606 | 273 | – | – | – | – | soluble at 0.3% | –
